Experimental data from publication PMC3083979 (Pharmaceutical research, 2009).
Read-outs that look alike come from different tables or passages of the source.

Legend:
[1] = system: perfused livers from Mrp2-deficient TR^− rats; experiment: In situ single-pass liver perfusion; type: in vivo, rat; conditions: GF120918 coadministration
[2] = system: human sandwich-cultured hepatocytes (SCH); conditions: for Accumulation Cells / Accumulation Cells + Bile / BEI: + 2 µM GF120918, 1 µM [3H]digoxin 10 min or 5 µM fexofenadine 30 min
human OATP1B3 = conditions: bosentan 100 µM, competitive, transfected CHO cells; ref [45]; cited from earlier work
human OATP1B1 = conditions: bosentan 100 µM, competitive, transfected CHO cells; ref [45]; cited from earlier work
human OATP2B1 = conditions: bosentan 100 µM, competitive, transfected CHO cells; ref [45]; cited from earlier work
[3] = system: rat isolated perfused livers; conditions: P-gp inhibitor erythromycin, ref [43]; cited from earlier work

Structure (SMILES): COc1cc2c(cc1OC)CN(CCc1ccc(NC(=O)c3cccc4c(=O)c5cccc(OC)c5[nH]c34)cc1)CC2 [GF120918, N-(4-[2-(1,2,3,4-tetrahydro-6,7-dimethoxy-2-isoquinolinyl)ethyl]-phenyl)-9,10-dihydro-5-methoxy-9-oxo-4-acridine carboxamide]
- Fexofenadine Cl’biliary as % of control [1]: 27.5 % of control
- Effect on fexofenadine BEI and in vitro biliary clearance ([2]; 2 µM GF120918, human SCH): not affected
- Effect on BEI and in vitro biliary clearance of [3H]digoxin ([2]; 2 µM GF120918, human SCH, both livers): abolished completely

Structure (SMILES): C[C@H]1O[C@@H](O[C@H]2[C@@H](O)C[C@H](O[C@H]3[C@@H](O)C[C@H](O[C@H]4CC[C@@]5(C)[C@H](CC[C@@H]6[C@@H]5C[C@@H](O)[C@]5(C)[C@@H](C7=CC(=O)OC7)CC[C@]65O)C4)O[C@@H]3C)O[C@@H]2C)C[C@H](O)[C@@H]1O [[^3H]Digoxin, digoxin]
- Accumulation Cells ([2]; Liver 1): 29.9 ± 1.6 pmol/mg
- Accumulation Cells + Bile ([2]; Liver 1): 26.2 ± 0.9 pmol/mg
- BEI ([2]; Liver 1): 0%
- Accumulation Cells ([2]; Liver 1, listed as [^3H]digoxin): 29.9 pmol/mg
- Accumulation Cells ([2]; Liver 2): 25.2 ± 1.6 pmol/mg
- Accumulation Cells + Bile ([2]; Liver 2): 23.4 ± 2.3 pmol/mg
- BEI ([2]; Liver 2): 0%

Structure (SMILES): COc1ccccc1Oc1c(NS(=O)(=O)c2ccc(C(C)(C)C)cc2)nc(-c2ncccn2)nc1OCCO [bosentan]
- Inhibition of transport of model probes (human OATP1B3): ~ 40%
- Inhibition of transport of model probes (human OATP1B1): ~ 40%
- Inhibition of transport of model probes (human OATP2B1): ~ 40%

Structure (SMILES): CC[C@H]1OC(=O)[C@H](C)[C@@H](O[C@H]2C[C@@](C)(OC)[C@@H](O)[C@H](C)O2)[C@H](C)[C@@H](O[C@@H]2O[C@H](C)C[C@H](N(C)C)[C@H]2O)[C@](C)(O)C[C@@H](C)C(=O)[C@H](C)[C@@H](O)[C@]1(C)O [erythromycin]
- Effect on cumulative recovery of fexofenadine in bile [3]: decreased
